Our source for the IC50 values is patent US10562912B2 (C&C Research Laboratories, priority 2013, dated 2020).

A value given as a limit tells only on which side of the number the result lay.

As a reminder, the IC50 is the concentration that inhibits the measured activity by half. Read a low IC50 as greater potency.

Assay type in all cases: cell-based
The test system of one assay is MDA-MB-231. Nature of the assay: Cell growth inhibition assay, breast cancer cell line MDA-MB-231. Particulars: Homo sapiens; MDA-MB-231 breast cancer cell line, 5,000 cells/well.
For another assay, the system named is LNCaP. Briefly: Cell growth inhibition assay, prostate cancer cell line LNCaP (medium with 10 ng/mL IL-6). Particulars: Homo sapiens, medium supplemented with 10 ng/mL of IL-6, 10,000 cells/well.
A further assay concerns the target T1, STAT3 (Homo sapiens, UniProt P40763).
T1 construct: plasmid pSTAT3-TA-luc), which contains a stably operating STAT3 promoter; endogenous in cells
Briefly: STAT3 reporter gene assay (luciferase), LNCaP stable cell line (pSTAT3-TA-luc), IL-6 stimulation. An outline of the steps: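 Cytotoxicity was run on a duplicate plate with CellTiter-Glo, while the other plate gave luciferase read-outs from lysed LNCaP pSTAT3-TA-luc reporter cells. Cells were treated with graded compound concentrations plus IL-6 (10 ng/mL final) for 24–48 h in 3% DCC-FBS medium. Unstimulated and stimulated wells served as negative and positive controls.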
A general note: Reporter assays use an easily measured gene product as a stand-in for the process of interest.

T1 sequence (P40763 whole entry): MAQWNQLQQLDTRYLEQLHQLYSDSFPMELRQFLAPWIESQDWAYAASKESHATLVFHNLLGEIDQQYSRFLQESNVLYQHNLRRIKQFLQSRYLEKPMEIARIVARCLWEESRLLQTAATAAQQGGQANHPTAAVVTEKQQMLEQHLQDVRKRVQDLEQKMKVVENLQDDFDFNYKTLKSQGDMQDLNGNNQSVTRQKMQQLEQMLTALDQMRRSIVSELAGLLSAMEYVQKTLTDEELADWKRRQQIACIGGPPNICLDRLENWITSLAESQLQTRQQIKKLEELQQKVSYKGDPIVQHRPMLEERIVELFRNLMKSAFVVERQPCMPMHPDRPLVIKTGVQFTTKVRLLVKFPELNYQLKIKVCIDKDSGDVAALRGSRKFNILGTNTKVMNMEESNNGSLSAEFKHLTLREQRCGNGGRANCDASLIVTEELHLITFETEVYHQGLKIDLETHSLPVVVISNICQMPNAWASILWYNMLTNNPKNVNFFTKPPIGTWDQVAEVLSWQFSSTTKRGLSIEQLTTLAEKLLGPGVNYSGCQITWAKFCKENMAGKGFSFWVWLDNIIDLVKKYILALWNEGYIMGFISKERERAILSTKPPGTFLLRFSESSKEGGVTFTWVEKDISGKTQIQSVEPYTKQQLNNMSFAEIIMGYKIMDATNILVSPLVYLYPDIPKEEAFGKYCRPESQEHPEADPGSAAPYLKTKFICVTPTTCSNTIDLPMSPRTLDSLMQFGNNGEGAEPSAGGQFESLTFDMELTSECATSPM

Consider `CN(C)c1cc(NC(=O)c2cc3ccc(NS(C)(=O)=O)cc3[nH]2)cc(-c2ccc(F)cc2F)c1` [Example 372, N-(5-(dimethylamino)-2′,4′-difluoro-[1,1′-biphenyl]-3-yl)-6-(methylsulfonamido)-1H-indole-2-carboxamide], for which the values for the IC50 with MDA-MB-231, with LNCaP and against STAT3 were 0.46 µM, 3.5 µM and 0.34 µM, respectively.

Take `CNc1cc(NC(=O)c2cc3ccc(NS(C)(=O)=O)cc3[nH]2)cc(-c2ccc(F)cc2F)c1` [Example 373, N-(2′,4′-difluoro-5-(methylamino)-[1,1′-biphenyl]-3-yl)-6-(methylsulfonamido)-1H-indole-2-carboxamide]: the IC50 with MDA-MB-231 is 1 µM; with LNCaP, 4.4 µM; at STAT3, 1.5 µM.

For `CS(=O)(=O)Nc1ccc2cc(C(=O)Nc3cc(-c4ccc(F)cc4F)cc(N4CCOCC4)c3)[nH]c2c1` [Example 374, N-(2′,4′-difluoro-5-morpholino-[1,1′-biphenyl]-3-yl)-6-(methylsulfonamido)-1H-indole-2-carboxamide], the IC50 in the assay on MDA-MB-231 is 2.7 µM; with LNCaP, 9.9 µM; against STAT3 it was 6.4 µM.

With `CN(C)c1cc(NC(=O)c2cc3cc(NS(C)(=O)=O)ccc3s2)cc(-c2ccc(F)cc2F)c1` [Example 375, N-(5-(dimethylamino)-2′,4′-difluoro-[1,1′-biphenyl]-3-yl)-5-(methylsulfonamido)benzo[b]thiophene-2-carboxamide], the IC50 with MDA-MB-231 worked out at 0.028 µM; with LNCaP, 1.1 µM; against STAT3 it was 0.14 µM.

Turning to `CN(C)c1cc(NC(=O)c2cc3cc(NS(C)(=O)=O)ccc3o2)cc(-c2ccc(F)cc2F)c1` [Example 376, N-(5-(dimethylamino)-2′,4′-difluoro-[1,1′-biphenyl]-3-yl)-5-(methylsulfonamido)benzofuran-2-carboxamide], the IC50 was 1.3 µM with MDA-MB-231, 7.7 µM in the assay with LNCaP and 5.2 µM on STAT3.

As for `COc1ccc(-c2cc(NC(=O)c3cc4ccc(NS(C)(=O)=O)cc4[nH]3)cc(-c3ccc(F)cc3F)c2)cn1` [Example 382, N-(2′,4′-difluoro-5-(6-methoxypyridin-3-yl)-[1,1′-biphenyl]-3-yl)-6-(methylsulfonamido)-1H-indole-2-carboxamide], the results for the IC50 with MDA-MB-231, with LNCaP and at STAT3 were 0.91 µM, 3.8 µM and 0.33 µM, respectively.

In the case of `COc1cccc(-c2cc(NC(=O)c3cc4ccc(NS(C)(=O)=O)cc4[nH]3)cc(-c3ccc(F)cc3F)c2)n1` [Example 383, N-(2′,4′-difluoro-5-(6-methoxypyridin-2-yl)-[1,1′-biphenyl]-3-yl)-6-(methylsulfonamido)-1H-indole-2-carboxamide], the 50% inhibitory concentration (IC50) was found to be 2.33 µM with MDA-MB-231, 4.3 µM in the assay with LNCaP and 0.09 µM on STAT3.

As for `CS(=O)(=O)Nc1ccc2cc(C(=O)Nc3cc(-c4cccc(O)n4)cc(-c4ccc(F)cc4F)c3)[nH]c2c1` [Example 384, N-(2′,4′-difluoro-5-(6-hydroxypyridin-2-yl)-[1,1′-biphenyl]-3-yl)-6-(methylsulfonamido)-1H-indole-2-carboxamide], the IC50 with MDA-MB-231, with LNCaP and at STAT3 was > 10 µM each time.

As for `CS(=O)(=O)Nc1ccc2cc(C(=O)Nc3cccc(C(F)(F)c4ccccc4)c3)[nH]c2c1` [Example 387, N-(3-(difluoro(phenyl)methyl)phenyl)-6-(methylsulfonamido)-1H-indole-2-carboxamide], the IC50 was found to be 1.17 µM with MDA-MB-231, 3.5 µM in the assay on LNCaP and 2.4 µM against STAT3.

As to `CS(=O)(=O)Nc1ccc2cc(C(=O)Nc3cccc(S(=O)(=O)c4cccc(N)c4)c3)[nH]c2c1` [Example 415, N-(3-((3-aminophenyl)sulfonyl)phenyl)-6-(methylsulfonamido)-1H-indole-2-carboxamide], the IC50 was 8.4 µM in the assay with MDA-MB-231, > 10 µM with LNCaP and 6.8 µM at STAT3.
